The NIST ThermoML archive (doi:10.1021/je800325d)

Experiments:
[1] = refractive index (Na D-line) (dimensionless); xn = mol fraction of the nth substance listed; details: 101 kPa, Liquid
[2] = xn = mol fraction of the nth substance listed; details: 101 kPa, Liquid

CC(=O)OCCC(C)C [3-methylbutyl ethanoate] + CCc1ccccc1
refractive index, [1], Standard Abbe refractometry
Details	x1 = 0.0851	x1 = 0.1684	x1 = 0.2613	x1 = 0.3719	x1 = 0.4584	x1 = 0.538	x1 = 0.6532	x1 = 0.7513	x1 = 0.8475	x1 = 0.9401
303.15 K	1.4802	1.4701	1.4593	1.4471	1.4376	1.4291	1.4177	1.4112	1.4041	1.3983
313.15 K	1.4781	1.4676	1.4565	1.4425	1.4342	1.4276	1.4168	1.4099	1.4035	1.3965

[2]
Details	mass density, 303.15 K [kg/m3]	mass density, 313.15 K [kg/m3]	viscosity, 303.15 K [mPa·s]	viscosity, 313.15 K [mPa·s]
x1 = 0.0851	856.9	848.8	0.597	0.533
x1 = 0.1684	858	849.1	0.605	0.541
x1 = 0.2613	858.4	849.7	0.615	0.549
x1 = 0.3719	859	850.3	0.629	0.559
x1 = 0.4584	859.6	850.9	0.639	0.567
x1 = 0.538	860.1	851.3	0.649	0.575
x1 = 0.6532	861.1	851.6	0.666	0.588
x1 = 0.7513	861.6	851.8	0.681	0.6
x1 = 0.8475	862	852.1	0.703	0.619
x1 = 0.9401	862.3	852.3	0.726	0.638

CC(=O)OCCC(C)C [3-methylbutyl ethanoate] + Cc1ccc(C)cc1
refractive index, [1], Standard Abbe refractometry
Details	x1 = 0.096	x1 = 0.1713	x1 = 0.2823	x1 = 0.3819	x1 = 0.4503	x1 = 0.5438	x1 = 0.6472	x1 = 0.7467	x1 = 0.8487	x1 = 0.9398
303.15 K	1.4821	1.4749	1.4645	1.4554	1.4495	1.4397	1.4293	1.4193	1.41	1.4017
313.15 K	1.4811	1.474	1.4621	1.4523	1.4454	1.4356	1.4248	1.4147	1.4056	1.3984

[2]
Details	mass density, 303.15 K [kg/m3]	mass density, 313.15 K [kg/m3]	viscosity, 303.15 K [mPa·s]	viscosity, 313.15 K [mPa·s]
x1 = 0.096	852.4	844.8	0.573	0.517
x1 = 0.1713	853.6	845.9	0.584	0.525
x1 = 0.2823	854.5	846.3	0.6	0.537
x1 = 0.3819	856.7	847.5	0.617	0.549
x1 = 0.4503	857.8	848.7	0.628	0.556
x1 = 0.5438	858.1	849.6	0.645	0.57
x1 = 0.6472	858.7	850.1	0.664	0.584
x1 = 0.7467	859.7	850.7	0.684	0.6
x1 = 0.8487	860.1	851.3	0.704	0.615
x1 = 0.9398	861	851.6	0.722	0.634

CC(=O)OCCC(C)C [3-methylbutyl ethanoate] + Cc1cccc(C)c1
refractive index, [1], Standard Abbe refractometry
Details	x1 = 0.0877	x1 = 0.1726	x1 = 0.3736	x1 = 0.4421	x1 = 0.5478	x1 = 0.657	x1 = 0.7478	x1 = 0.8501	x1 = 0.9465
303.15 K	1.483	1.4745	1.4549	1.4487	1.4398	1.4297	1.4207	1.4101	1.4014
313.15 K	1.4811	1.4724	1.452	1.4456	1.435	1.4248	1.4157	1.4056	1.3985

[2]
Details	mass density, 303.15 K [kg/m3]	mass density, 313.15 K [kg/m3]	viscosity, 303.15 K [mPa·s]	viscosity, 313.15 K [mPa·s]
x1 = 0.0877	855.8	847.3	0.561	0.502
x1 = 0.1726	856.5	848.2	0.572	0.51
x1 = 0.3736	858.2	849.5	0.605	0.538
x1 = 0.4421	858.4	849.6	0.619	0.549
x1 = 0.5478	858.8	849.8	0.643	0.568
x1 = 0.657	859.3	850.3	0.666	0.587
x1 = 0.7478	860.1	851.1	0.687	0.603
x1 = 0.8501	861	851.9	0.708	0.623
x1 = 0.9465	861.9	852.8	0.727	0.638

CC(=O)OCCC(C)C [3-methylbutyl ethanoate] + Cc1ccccc1C
Details	mass density, [2] [kg/m3]	refractive index, [1]	viscosity, [2] [mPa·s]
303.15 K, x1 = 0.0856	869.7	1.4903	0.705
303.15 K, x1 = 0.1739	869.5	1.4806	0.707
303.15 K, x1 = 0.2554	868.2	1.4721	0.709
303.15 K, x1 = 0.3538	867.8	1.462	0.712
303.15 K, x1 = 0.445	867.4	1.453	0.714
303.15 K, x1 = 0.5481	866	1.4436	0.718
303.15 K, x1 = 0.6564	865	1.4319	0.722
303.15 K, x1 = 0.7531	864.1	1.4217	0.726
303.15 K, x1 = 0.8542	863.7	1.4113	0.731
303.15 K, x1 = 0.9538	863.2	1.4018	0.738
313.15 K, x1 = 0.0856	861.4	1.488	0.622
313.15 K, x1 = 0.1739	860.8	1.4779	0.623
313.15 K, x1 = 0.2554	859.8	1.4695	0.623
313.15 K, x1 = 0.3538	859.1	1.458	0.624
313.15 K, x1 = 0.445	858.4	1.4486	0.625
313.15 K, x1 = 0.5481	856.7	1.4375	0.627
313.15 K, x1 = 0.6564	855.8	1.4258	0.631
313.15 K, x1 = 0.7531	855.1	1.4157	0.635
313.15 K, x1 = 0.8542	854.7	1.4062	0.64
313.15 K, x1 = 0.9538	853.9	1.3961	0.646

COC(=O)c1ccccc1 [methyl benzoate] + CCc1ccccc1
refractive index, [1], Standard Abbe refractometry
Details	x1 = 0.1033	x1 = 0.1927	x1 = 0.2952	x1 = 0.3974	x1 = 0.4947	x1 = 0.5866	x1 = 0.6963	x1 = 0.7953	x1 = 0.9016	x1 = 0.951
303.15 K	1.4911	1.4933	1.4945	1.4958	1.4968	1.4978	1.5022	1.5054	1.509	1.5092
313.15 K	1.4888	1.49	1.4918	1.4928	1.4937	1.4955	1.4985	1.5014	1.5044	1.5064

[2]
Details	mass density, 303.15 K [kg/m3]	mass density, 313.15 K [kg/m3]	viscosity, 303.15 K [mPa·s]	viscosity, 313.15 K [mPa·s]
x1 = 0.1033	877.9	870.2	0.656	0.583
x1 = 0.1927	898.9	890.3	0.701	0.641
x1 = 0.2952	921.6	912.7	0.784	0.687
x1 = 0.3974	943.6	935	0.857	0.75
x1 = 0.4947	963.3	954.1	0.947	0.824
x1 = 0.5866	982.3	973.7	1.043	0.925
x1 = 0.6963	1000.3	992	1.17	1.048
x1 = 0.7953	1023.3	1010.3	1.308	1.165
x1 = 0.9016	1053.3	1043.3	1.464	1.287
x1 = 0.951	1056.8	1047.4	1.566	1.346

COC(=O)c1ccccc1 [methyl benzoate] + Cc1ccc(C)cc1
refractive index, [1], Standard Abbe refractometry
Details	x1 = 0.0958	x1 = 0.2055	x1 = 0.3011	x1 = 0.399	x1 = 0.4951	x1 = 0.5988	x1 = 0.6973	x1 = 0.7846	x1 = 0.9027	x1 = 0.948
303.15 K	1.492	1.4939	1.4947	1.4959	1.4969	1.4982	1.5012	1.5055	1.5122	1.5104
313.15 K	1.4913	1.4922	1.4932	1.4945	1.4952	1.4961	1.4989	1.5014	1.5088	1.509

[2]
Details	mass density, 303.15 K [kg/m3]	mass density, 313.15 K [kg/m3]	viscosity, 303.15 K [mPa·s]	viscosity, 313.15 K [mPa·s]
x1 = 0.0958	873	864.7	0.616	0.551
x1 = 0.2055	898.1	889.5	0.693	0.609
x1 = 0.3011	919.3	911.1	0.759	0.67
x1 = 0.399	940.9	932.3	0.839	0.728
x1 = 0.4951	961.9	953.1	0.922	0.803
x1 = 0.5988	984.4	975.7	1.033	0.889
x1 = 0.6973	1006.2	1000.4	1.152	0.992
x1 = 0.7846	1024.4	1013	1.269	1.093
x1 = 0.9027	1056	1047.3	1.45	1.253
x1 = 0.948	1059.2	1050.3	1.561	1.322

COC(=O)c1ccccc1 [methyl benzoate] + Cc1cccc(C)c1
refractive index, [1], Standard Abbe refractometry
Details	x1 = 0.1071	x1 = 0.203	x1 = 0.3034	x1 = 0.3924	x1 = 0.4909	x1 = 0.5978	x1 = 0.6867	x1 = 0.8125	x1 = 0.8734	x1 = 0.9518
303.15 K	1.4933	1.4943	1.4954	1.4962	1.4973	1.5004	1.5033	1.5069	1.5093	1.5107
313.15 K	1.4911	1.4919	1.4927	1.4933	1.4941	1.496	1.4987	1.502	1.504	1.5064

[2]
Details	mass density, 303.15 K [kg/m3]	mass density, 313.15 K [kg/m3]	viscosity, 303.15 K [mPa·s]	viscosity, 313.15 K [mPa·s]
x1 = 0.1071	878.7	870.6	0.609	0.544
x1 = 0.203	900.2	891.9	0.672	0.598
x1 = 0.3034	922.3	914.2	0.739	0.654
x1 = 0.3924	941.4	933.2	0.824	0.729
x1 = 0.4909	962.7	954.4	0.923	0.804
x1 = 0.5978	985.7	977.1	1.023	0.892
x1 = 0.6867	1004.6	995.8	1.134	0.978
x1 = 0.8125	1029.6	1021.9	1.316	1.122
x1 = 0.8734	1043.8	1034.8	1.403	1.191
x1 = 0.9518	1059.6	1050.7	1.565	1.317
